From patent US20060173028A1, “Therapeutic and/or preventive agent for chronic skin disease” (Kyowa Hakko Kogyo Co., Ltd., priority 2003, published 2006)
Marks after values point to notes of the source that are not given here.

Tests used:
[1] = system: oxazolone-induced ear swelling; assay: Inhibitory effects on oxazolone-induced ear swelling in mice; type: in vivo, BALB/c mice; conditions: dose 100 μg/site, epicutaneous
Protocol: Six-week-old BALB/c mice (male, Charles River Japan, Inc.) were used for the experiment. […] The mice were placed in plastic cages (6 mice per cage) in a breeding room which was kept at a room temperature (19 to 25° C.) and a humidity of 30 to 70% and was illuminated for 12 hours a day (from 7:00 a.m. to 7:00 p.m.). The mice were allowed to freely access commercially available pellets and water. As an antigen solution, Oxazolone (Sigma-Aldrich) was dissolved in acetone (Kanto Kagaku) to prepare 0.5 weight/volume % of oxazolone-acetone solution. Compound (I) was dissolved in the antigen solution at 5 weight/volume % to prepare a Compound (I)-dissolving antigen solution. BALB/c mice were each applied with 100 μL of the antigen solution to the shaved abdomen for sensitization. Mice were shaved on abdomen on the previous day of the sensitization. […] Ear thickness was measured with a dial thickness gauge (Ozaki Seisakusho) just before and 24 hours after the application for inducing .the reaction, and the difference in the thickness was used as an indication of ear swelling. The inhibition ratio (%) against ear swelling was calculated using the following: Inhibition ratio (%)=[{(value in solvent administration group)−(value in Compound (I) administration group)}/{(value in solvent administration group)−(value in non-administration group)}]×100

[2] = system: dermatitis induced by repeated application of oxazolone; assay: Inhibitory effects on the increase of ear thickness in a mouse model of dermatitis induced by repeated application of oxazolone; type: in vivo, BALB/c mice; conditions: 28th day, dose 50 μg/site/time
Protocol: Six-week-old BALB/c mice (male, Charles River Japan, Inc.) were used for the experiment. […] The mice were placed in plastic cages (6 mice per cage) in a breeding room which was kept at a room temperature (19 to 25° C.) and a humidity of 30 to 70% and was illuminated for 12 hours a day (from 7:00 a.m. to 7:00 p.m.). The mice were allowed to freely access commercially available pellets and water.
The experiment was performed according to a method by Kitagaki et al. (J. Invest. Dermatol., […], 105: 749) with small modification.
As an antigen solution, Oxazolone (Sigma-Aldrich) was dissolved in acetone (Kanto Kagaku) to prepare 0.5 weight/volume % of oxazolone-acetone solution. Compound (I) was dissolved in the antigen solution at 5 weight/volume % to prepare a Compound (I)-dissolving antigen solution. BALB/c mice were each applied with 10 μL of the antigen solution to the ear for sensitization. […] On the 28th day when chronic dermatitis symptoms were observed, ear thickness was measured with a dial thickness gauge (Ozaki Seisakusho). The inhibition ratio (%) against the increase of ear thickness was calculated using the following: Inhibition ratio (%)=[{(value in solvent administration group)−(value in Compound (I) administration group)}/{(value in solvent administration group)−(value in non-administration group)}]×100

[3] = system: delayed-type allergic reaction in the skin; conditions: animal model; Eur. J. Pharmacol., 2002, 446: 195; cited from earlier work
[4] = system: chronic dermatitis models; conditions: J. Pharmacol. Exp. Ther., 1998, 287, p. 705; cited from earlier work

## COc1ccc(C(=O)Cc2c(Cl)cncc2Cl)c2c1OC1(CCCC1)O2 [Compound (I), 7-[2-(3,5-dichloro-4-pyridyl)-1-oxoethyl]-4-methoxy-spiro[1,3-benzodioxol-2,1′-cyclopentane]]
[1]; difference in ear thickness just before and 24 hours after induction, male BALB/c mice
  Auricular Edema: 16** ×0.01 mm
[1]; 24 hours after induction, relative to solvent and non-administration groups
  Inhibition Ratio against ear swelling: 64%
[2]; repeated application to the ear day 7 to 28, male BALB/c mice
  Auricle thickness: 67** ×0.01 mm
[2]; repeated application, relative to solvent and non-administration groups
  Inhibition Ratio against the increase of ear thickness: 41%

## COc1ccc([C@]2(C#N)CC[C@@H](C(=O)O)CC2)cc1OC1CCCC1 [SB207499]
[3]
  Effect on delayed-type allergic reaction in the skin: inhibit a delayed-type allergic reaction in the skin
[4]
  Therapeutic effects on chronic dermatitis models: exhibit therapeutic effects on chronic dermatitis models
